Tests used:
Assay type in all cases: in vivo, maize
[1] = system: ZEAMA Sileno; assay: Treatment 1 day before (safener applied one day before herbicide, post-emergence); design: key to Reduction [Difference]: percentage points of visually scored % crop damage vs untreated control; conditions: for Reduction [%] / Reduction [Difference]: cyprosulfamide 100 g a.i./ha 1 day before; for HER effect + SAF: cyprosulfamide 100 g a.i./ha applied 1 day before; for HER effect + SAF / HER effect: Final assessment; for HER effect: no safener
Text: Seeds of crops (spring wheat, TRZAS; spring barley, HORVS; maize, ZEAMA) were placed in sandy loam soil in pots of a diameter of 7-8 cm, covered with soil, and cultivated in a greenhouse under good growth conditions until plants were at the 1-3 leaf stage (BBCH 11-13). For split safener and herbicide treatment, first the safener was applied followed by the herbicide treatment on the following day. The safener and herbicides were formulated as WP and sprayed onto the green parts of the plants as an aqueous suspension at an equivalent water application rate of 300 1/ha, with addition of wetting agent and adjuvants (e.g. Mero, 1.5 1/ha; ammonium sulphate, 2 kg/ha). An equivalent set of plants was treated with the herbicides but without the prior safener treatment.
(§1) After application, the test plants were kept in the greenhouse under good growth conditions. 10 and 21 days after treatment (DAT) with the herbicide, % crop damage observed on the treated plants was scored visually in comparison to control plants that had not received any safener or herbicide treatment.

[2] = system: ZEAMA Sileno; assay: Seed treatment with safener; post-emergence herbicide application; design: Reduction [Difference]: scale not given here; conditions: Final assessment; for Reduction [%] / Reduction [Difference]: Cyprosulfamide 0.5 g a.i./kg seed; for Reduction [Difference]: damage without safener - damage with safener; for HER effect + SAF (crop damage with safener): Cyprosulfamide seed treatment 0.5 g a.i./kg seed; for HER effect (crop damage, herbicide without safener): no safener
Outline: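 Maize seeds slurry-coated with WP safener (g a.i./kg seed) or left untreated, sown in sandy loam and grown in greenhouse. WP herbicide sprayed post-emergence at BBCH11-13 in 300 l/ha water with wetting agent and adjuvants (e.g. Mero 1.5 l/ha, ammonium sulphate 2 kg/ha); means of at least 2 replicates.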

[3] = system: ZEAMA Abraxas; assay: Tank-mix; post-emergence, crop damage with and without safener; conditions: for HER effect + SAF / HER effect: Final assessment; for HER effect: no safener
Outline: (§2)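 Crops in sandy loam in the greenhouse were sprayed at the 1–3-leaf stage, 2–3 weeks after sowing, with herbicide/safener combinations or the single actives at various dosages in 300 l/ha water. Injury was scored visually 1–3 weeks after treatment as % versus untreated plants (0% none, 100% complete kill).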

[4] = system: ZEAMA Sileno; assay: Seed treatment with safener; pre-emergence herbicide application; conditions: for Reduction [%] / Reduction [Difference]: cyprosulfamide 0.25 g a.i./kg seed; for HER effect + SAF: cyprosulfamide seed treatment 0.25 g a.i./kg seed; for HER effect: no safener
Description: For the safener seed treatment, sufficient seeds of the respective crops (spring wheat, TRZAS; spring barley, HORVS; maize, ZEAMA) were weighed into screw top glass bottles approximately twice the volume of the seeds.
The specified safeners, formulated as wettable powder (WP) were weighed out so that the specified rates (g a.i./kg seed) would be obtained, dissolved in water (1 ml water per 10 g of seeds), and added to the seeds to produce a slurry.
The bottles were capped and then placed in an overhead shaker (set at medium speed for ca. 60 minutes) so that the seeds were evenly coated with the slurry. The bottles were uncapped and the seeds were either placed on paper and dried for an interval of 3-4 hours prior to sowing, or directly sown. Seeds were placed in sandy loam soil in pots of a diameter of 7-8 cm, and covered with soil.
Pre-emergence application of the specified herbicides was done subsequently, on two sets of plants: • a) seed treatment with safener, as described above • b) no safener treatment
The herbicides were formulated as WP and was sprayed onto the soil surface as an aqueous suspension at an equivalent water application rate of 300 1/ha.
as §1, with “At intervals up to 4 weeks after application (=28” for “10 and 21”, “treatment; DAT),” for “treatment (DAT) with the herbicide,”
Values in the table below are mean values of at least 2 replicates.

[5] = system: ZEAMA Sileno; assay: Tank-mix; post-emergence, crop damage with and without safener; conditions: for HER effect + SAF / HER effect: Final assessment; for HER effect: no safener
Outline: as §2

[6] = HER 8 g a.i./ha, cyprosulfamide 50 g a.i./ha
[7] = HER dose 8 g a.i./ha + cyprosulfamide 50 g a.i./ha tank-mix
[8] = HER 2 g a.i./ha, cyprosulfamide 50 g a.i./ha
[9] = HER dose 2 g a.i./ha + cyprosulfamide 50 g a.i./ha tank-mix
[10] = HER dose 40 g a.i./ha pre-emergence, 26 DAT
[11] = HER dose 80 g a.i./ha pre-emergence, 26 DAT
[12] = HER 32 g a.i./ha, cyprosulfamide 100 g a.i./ha
[13] = HER dose 32 g a.i./ha + cyprosulfamide 100 g a.i./ha tank-mix
[14] = HER dose 40 g a.i./ha pre-emergence, 14 DAT

SMILES	Reduction [%] ([1]; HER 32 g a.i./ha)	Reduction [Difference] ([1]; HER 32 g a.i./ha)	HER effect + SAF ([1]; HER dose 32 g a.i./ha)	HER effect ([1]; HER dose 32 g a.i./ha)	Reduction [%] ([2]; HER dose 32 g a.i./ha)	Reduction [Difference] ([2]; HER dose 32 g a.i./ha)	HER effect + SAF (crop damage with safener) ([2]; HER dose 32 g a.i./ha)	HER effect (crop damage, herbicide without safener) ([2]; HER dose 32 g a.i./ha)	Reduction [%] ([2]; HER dose 2 g a.i./ha)	Reduction [Difference] ([2]; HER dose 2 g a.i./ha)	HER effect + SAF (crop damage with safener) ([2]; HER dose 2 g a.i./ha)	HER effect (crop damage, herbicide without safener) ([2]; HER dose 2 g a.i./ha)	Reduction [%] ([2]; HER dose 8 g a.i./ha)	Reduction [Difference] ([2]; HER dose 8 g a.i./ha)	HER effect + SAF (crop damage with safener) ([2]; HER dose 8 g a.i./ha)	HER effect (crop damage, herbicide without safener) ([2]; HER dose 8 g a.i./ha)	Reduction [%] [3, 8]	Reduction [Difference] [3, 8]	HER effect + SAF [3, 9]	HER effect ([3]; HER dose 2 g a.i./ha)	further results
COC(=O)C1C=CC(NC(=O)C2(C)CC(c3cc(F)cc(Cl)c3)=NO2)C1 (centres unmarked) [Example 1.21]	57%	20	15%	35%	71%	25	10%	35%													Reduction [%] [3, 6]: 71%; Reduction [Difference] [3, 6]: 25; HER effect + SAF [3, 7]: 10%; HER effect ([3]; HER dose 8 g a.i./ha): 35%
CCCSCCOC(=O)C1C=CC(NC(=O)C2(C)CC(c3cc(F)cc(F)c3)=NO2)C1 (centres unmarked) [Example 1.34]	44%	20	25%	45%	78%	35	10%	45%	100%	20	0%	20%	80%	40	10%	50%	50%	25	25%	50%	Reduction [%] ([1]; HER 8 g a.i./ha): 60%; Reduction [Difference] ([1]; HER 8 g a.i./ha): 30; HER effect + SAF ([1]; HER dose 8 g a.i./ha): 20%; HER effect ([1]; HER dose 8 g a.i./ha): 50%
C=CC1(C(=O)NC2C=CC(C(=O)OC)C2)CC(c2cc(F)cc(F)c2)=NO1 (centres unmarked) [Example 1.26]					71%	67	27%	94%					74%	42	15%	57%					Reduction [%] ([4]; HER 40 g a.i./ha, 26 DAT): 70%; Reduction [Difference] ([4]; HER 40 g a.i./ha, 26 DAT): 35; Reduction [%] ([4]; HER 80 g a.i./ha, 26 DAT): 57%; Reduction [Difference] ([4]; HER 80 g a.i./ha, 26 DAT): 40; HER effect + SAF [4, 10]: 15%; HER effect [4, 10]: 50%; HER effect + SAF [4, 11]: 30%; HER effect [4, 11]: 70%; Reduction [%] [5, 6]: 70%; Reduction [Difference] [5, 6]: 40; Reduction [%] [5, 12]: 71%; Reduction [Difference] [5, 12]: 67; HER effect + SAF [5, 7]: 17%; HER effect ([5]; HER dose 8 g a.i./ha): 57%; HER effect + SAF [5, 13]: 27%; HER effect ([5]; HER dose 32 g a.i./ha): 94%
COCCOC(=O)C1C=CC(NC(=O)C2(CCl)CC(c3cc(F)cc(F)c3)=NO2)C1 (centres unmarked) [Example 1.1]	79%	55	15%	70%	100%	70	0%	70%					100%	30	0%	30%					Reduction [%] [3, 12]: 84%; Reduction [Difference] [3, 12]: 80; HER effect + SAF [3, 13]: 15%; HER effect ([3]; HER dose 32 g a.i./ha): 95%
C=CC1(C(=O)NC2COC(C(=O)OC)C2)CC(c2cc(F)cc(F)c2)=NO1 (mixture of isomers) [Example 1.68]					69%	68	30%	98%	83%	50	10%	60%	74%	73	25%	98%					Reduction [%] ([1]; HER 8 g a.i./ha): 69%; Reduction [Difference] ([1]; HER 8 g a.i./ha): 68; HER effect + SAF ([1]; HER dose 8 g a.i./ha): 30%; HER effect ([1]; HER dose 8 g a.i./ha): 98%; Reduction [%] ([4]; HER 40 g a.i./ha, 14 DAT): 41%; Reduction [Difference] ([4]; HER 40 g a.i./ha, 14 DAT): 38; Reduction [%] ([4]; HER 40 g a.i./ha, 26 DAT): 58%; Reduction [Difference] ([4]; HER 40 g a.i./ha, 26 DAT): 55; HER effect + SAF [4, 14]: 55%; HER effect + SAF [4, 10]: 40%; HER effect [4, 14]: 93%; HER effect [4, 10]: 95%; Reduction [%] [5, 8]: 67%; Reduction [Difference] ([5]; HER 2 g a.i./ha, cyprosulfamide 50 g a.i./ha, damage without safener - damage with safener): 40; HER effect + SAF [5, 9]: 20%; HER effect ([5]; HER dose 2 g a.i./ha, 0% = no injury, 100% = complete kill): 60%
COC(=O)C1C=CC(NC(=O)C2(C)CC(c3cc(F)cc(F)c3)=NO2)C1 (centres unmarked) [Example 1.19]	88%	70	10%	80%	75%	60	20%	80%					75%	30	10%	40%	80%	60	15%	75%	
CC1(C(=O)NC2C=CC(C(=O)OCCSC(F)(F)F)C2)CC(c2cc(F)cc(F)c2)=NO1 (centres unmarked) [Example 1.38]	73%	55	20%	75%	100%	75	0%	75%	100%	25	0%	25%	100%	35	0%	35%	42%	25	35%	60%	

Reference: patent US20230240297A1, “SELECTIVE HERBICIDES BASED ON SUBSTITUTED ISOXAZOLIN CARBOXAMIDES AND CYPROSULFAMIDE” (Bayer Aktiengesellschaft, priority 2020, published 2023)
